Experimental data taken from PubChem BioAssay AID1259407 (Chemical Carcinogenesis Research Information System (CCRIS), 2018).
Entries after “also recorded” stand apart in the source; their conditions may differ. Calls of active or inactive are those of the source. The rule behind the calls is not given here.

Test system: CCRIS mutagenicity, Ames/micronucleus/aberration tests
Assay: CCRIS mutagenicity studies

## O=C(c1ccccc1)C(O)c1ccccc1 (stereo not drawn)
End Point: IN VITRO CHROMOSOMAL ABERRATIONS, Test System: CHL/IU CELLS, Metabolic Activation: RAT, LIVER, S-9, PHENOBARBITAL AND 5,6-BENZOFLAVONE
  mutagenic call: active; positive (structural changes)
End Point: IN VITRO CHROMOSOMAL ABERRATIONS, Test System: CHO CELLS, Metabolic Activation: NONE
  mutagenic call: active; positive; weak response; precipitation occurred at 500 ug/ml; also recorded: inactive; negative; precipitation occurred at 500 ug/ml
End Point: IN VITRO MICRONUCLEUS, Test System: CHL/IU CELLS, Metabolic Activation: RAT, LIVER, S-9, PHENOBARBITAL AND 5,6-BENZOFLAVONE
  mutagenic call: active; positive
End Point: IN VIVO MICRONUCLEUS, Test System: BLOOD ERYTHROCYTES, Species: MOUSE, Strain/Sex: CD-1/MALE, Route: ORAL
  mutagenic call: inactive; negative
Test System: AMES SALMONELLA TYPHIMURIUM, Strain/Indicator: TA97, Metabolic Activation: HAMSTER LIVER S-9, AROCLOR 1254 (10%), Method: PREINCUBATION
  mutagenic call: inactive; negative
Test System: AMES SALMONELLA TYPHIMURIUM, Strain/Indicator: TA97, Metabolic Activation: NONE, Method: PREINCUBATION
  mutagenic call: inactive; negative
Test System: AMES SALMONELLA TYPHIMURIUM, Strain/Indicator: TA97, Metabolic Activation: NONE, Method: STANDARD PLATE
  mutagenic call: inactive; negative
Test System: AMES SALMONELLA TYPHIMURIUM, Strain/Indicator: TA97, Metabolic Activation: RAT LIVER S-9, AROCLOR 1254 (10%), Method: PREINCUBATION
  mutagenic call: inactive; negative
Test System: AMES SALMONELLA TYPHIMURIUM, Strain/Indicator: TA97, Metabolic Activation: S-9, Method: STANDARD PLATE
  mutagenic call: inactive; negative
Test System: AMES SALMONELLA TYPHIMURIUM, Strain/Indicator: TA98, Metabolic Activation: HAMSTER LIVER S-9, AROCLOR 1254 (10%), Method: PREINCUBATION
  mutagenic call: inactive; negative
Test System: AMES SALMONELLA TYPHIMURIUM, Strain/Indicator: TA98, Metabolic Activation: NONE, Method: PREINCUBATION
  mutagenic call: inactive; negative
Test System: AMES SALMONELLA TYPHIMURIUM, Strain/Indicator: TA98, Metabolic Activation: NONE, Method: STANDARD PLATE
  mutagenic call: inactive; negative
Test System: AMES SALMONELLA TYPHIMURIUM, Strain/Indicator: TA98, Metabolic Activation: RAT LIVER S-9, AROCLOR 1254 (10%), Method: PREINCUBATION
  mutagenic call: inactive; negative
Test System: AMES SALMONELLA TYPHIMURIUM, Strain/Indicator: TA98, Metabolic Activation: RAT, LIVER, S-9, AROCLOR 1254, Method: STANDARD PLATE
  mutagenic call: inactive; negative
Test System: AMES SALMONELLA TYPHIMURIUM, Strain/Indicator: TA98, Metabolic Activation: S-9, Method: STANDARD PLATE
  mutagenic call: inactive; negative
Test System: AMES SALMONELLA TYPHIMURIUM, Strain/Indicator: TA100, Metabolic Activation: HAMSTER LIVER S-9, AROCLOR 1254 (10%), Method: PREINCUBATION
  mutagenic call: inactive; negative
Test System: AMES SALMONELLA TYPHIMURIUM, Strain/Indicator: TA100, Metabolic Activation: NONE, Method: PREINCUBATION
  mutagenic call: inactive; negative
Test System: AMES SALMONELLA TYPHIMURIUM, Strain/Indicator: TA100, Metabolic Activation: NONE, Method: STANDARD PLATE
  mutagenic call: inactive; negative
Test System: AMES SALMONELLA TYPHIMURIUM, Strain/Indicator: TA100, Metabolic Activation: RAT LIVER S-9 AROCLOR 1254 (10%), Method: PREINCUBATION
  mutagenic call: inactive; negative
Test System: AMES SALMONELLA TYPHIMURIUM, Strain/Indicator: TA100, Metabolic Activation: RAT, LIVER, S-9, AROCLOR 1254, Method: STANDARD PLATE
  mutagenic call: inactive; negative
Test System: AMES SALMONELLA TYPHIMURIUM, Strain/Indicator: TA100, Metabolic Activation: S-9, Method: STANDARD PLATE
  mutagenic call: inactive; negative
Test System: AMES SALMONELLA TYPHIMURIUM, Strain/Indicator: TA102, Metabolic Activation: NONE, Method: STANDARD PLATE
  mutagenic call: inactive; negative
Test System: AMES SALMONELLA TYPHIMURIUM, Strain/Indicator: TA102, Metabolic Activation: RAT LIVER S-9, PHENOBARBITAL AND 5,6-BENZOFLAVONE, Method: STANDARD PLATE
  mutagenic call: inactive; negative
Test System: AMES SALMONELLA TYPHIMURIUM, Strain/Indicator: TA102, Metabolic Activation: RAT, LIVER, S-9, AROCLOR 1254, Method: STANDARD PLATE
  mutagenic call: inactive; negative
Test System: AMES SALMONELLA TYPHIMURIUM, Strain/Indicator: TA102, Metabolic Activation: S-9, Method: STANDARD PLATE
  mutagenic call: inactive; negative
Test System: AMES SALMONELLA TYPHIMURIUM, Strain/Indicator: TA1535, Metabolic Activation: HAMSTER LIVER S-9, AROCLOR 1254 (5%), Method: PREINCUBATION
  mutagenic call: inactive; negative
Test System: AMES SALMONELLA TYPHIMURIUM, Strain/Indicator: TA1535, Metabolic Activation: HAMSTER LIVER S-9, AROCLOR 1254 (10%), Method: PREINCUBATION
  mutagenic call: inactive; negative
Test System: AMES SALMONELLA TYPHIMURIUM, Strain/Indicator: TA1535, Metabolic Activation: NONE, Method: PREINCUBATION
  mutagenic call: active; positive
